Data on one compound can be found in patent US12402629B2, “Aspergillus terreus strain and composition for controlling bacterial plant diseases using strain or culture filtrate thereof” (Andong National University Industry-Academic Cooperation …, priority 2022, dated 2025).

Entries after “also recorded” stand apart in the source; their conditions may differ.

The test system of assay [1] is Dickeya chrysanthemi. The assay is described as follows: Disc diffusion assay on NA medium. It counts as cell-based. To be noted: paper filter disk wetted with 400 ppm of MPP, NA medium (FIG. 5). The protocol: To this end, the NA medium (Nutrient agar medium: peptone 5 g, beef extract 1.5 g, yeast extract 1.5 g, NaCl 5 g & agar 15 g/1 L) was smeared with Dickeya chrysanthemi bacteria. After placing a paper filter disk in the center of the medium, 10 μL of culture extract and 400 ppm of MPP were wetted therein, respectively, and the result of culturing the bacteria was observed.
A general note: A growth-free zone around the sample is the usual read-out of agar diffusion tests.

For assay [2], the system named is Dickeya chrysanthemi. Description: Pathogen inoculation experiment on potato (potato soft rot control effect). It counts as in vivo. To be noted: potato treated at the same time with D.c. suspension 2×10^6 cfu/ml and 400 ppm MPP (FIG. 6). The protocol: In order to test whether the culture filtrate of the Aspergillus terreus ANU-301 strain of the present disclosure has a control effect on potato soft rot caused by Dickeya chrysanthemi bacteria, a pathogen inoculation experiment was performed (FIG. 3).
In potato plants inoculated with Dickeya chrysanthemi bacteria (D.c.), browning progressed at the inoculation site, and symptoms of soft rot disease were confirmed.
A pathogen inoculation experiment was conducted to test whether the MPP component present in the culture filtrate of the Aspergillus terreus ANU-301 strain of the present disclosure is effective in controlling potato soft rot disease caused by Dickeya chrysanthemi bacteria (FIG. 6). In potato plants inoculated with Dickeya chrysanthemi bacteria (D.c.), browning progressed at the inoculation site, and symptoms of soft rot disease were confirmed. […] Hereinafter, the present disclosure will be described in more detail with reference to Examples. However, these examples are presented merely to describe the present disclosure in more detail, and the scope of the present disclosure is not limited to these examples.
In order to evaluate the effect of the ANU-301 strain culture filtrate on potato soft rot inhibition, the culture filtrate was prepared as follows.
The ANU-301 strain was inoculated into sterilized potato dextrose broth (PDB) and cultured at 25° C. for 5 days. […]

Regarding `CC(C)(c1ccccc1)c1ccc(O)c(C(C)(C)c2ccccc2)c1` [MPP, 2,4-bis(1-methyl-1-phenylethyl)-phenol], the “bacterial growth / clear zone around the disk” value with Dickeya chrysanthemi [1] is recorded as “a clear zone was formed”. In the assay with Dickeya chrysanthemi [2], the “soft rot symptoms (disease control effect)” value is “soft rot symptoms were suppressed; also recorded: showed a disease inhibitory effect”.
